# Laboratory results as given in patent US8349805B2, “Use of Gonadorelin as a therapeutic agent” (priority 2007, dated 2013).
# Ends that are not written are not given here.
# Tests used:
# [1] = tested on: hepatitis B virus (HBV) ayw strain; experiment: HBV replication assay in HepG2-2.2.15 cells (TaqMan PCR of secreted HBV DNA); type: cell-based; conditions: 10 micrograms per ml; HepG2-2.2.15, 6 days; combination 0.95 mole peptide 1 and 1.05 mole peptide 2
# [2] = tested on: A549 cells; experiment: Apoptosis prevention assay (C2 ceramide, Annexin-5); type: cell-based, human; conditions: 10 micrograms per ml, 30 min pretreatment, combination 0.95:1.05 mole
# [3] = tested on: murine spleen cells; experiment: Th1/Th2 cytokine profiling assay; type: cell-based, Balb/c mice; conditions: 10 micrograms per ml; Ovalbumin-restimulated murine spleen cells, 72 hours
# From the text: The Balb/c mice (originated in 1923, it is a popular strain and is used in many different research disciplines. Also classified as an inbred from the production of 20 or more successive brother-sister matings, the Balb/c mouse is albino and small in size) were immunized on Days 1, 15, and 29 with Ovalbumin (Ovalbumin is the main protein found in egg white, commonly used to stimulate an immunological reaction in test animals) in PBS (5 micrograms/injection). On day 50, spleens of the mice were harvested (3 weeks after last boost with Ovalbumin). Cells were cultured (2×10^5/well in triplicate) and incubated with culture medium or test peptides—10 micrograms per ml—for 30 min. Thereafter, additional Ovalbumin was added to the cells at 10 micrograms/ml for in vitro restimulation of the cells. 72 hours later, cell supernatants were harvested and assayed using the Becton Dickinson Mouse Th1/Th2 Cytokine CBA Kit.
# [4] = tested on: Primary Human endothelial cells (HUVEC); experiment: Endothelial cell migration assay; type: cell-based; conditions: 10 micrograms per ml, 22 hours
# Experimental: Thereafter, designated concentration of testing peptides—10 micrograms per ml—was added in duplicate wells.
# [5] = tested on: HUVEC; experiment: Endothelial tube formation assay; type: cell-based, human; conditions: 10 micrograms per ml, 20 hours, combination 1.10 mole:0.90 mole
# From the text: Positive control was vehicle only.
# [6] = tested on: HCMV strain AD169; experiment: HCMV plaque formation assay in MRC-5 cells; conditions: 10 micrograms per ml, 7-10 days
compound,measurement,setting,value
CC(C)C[C@H](NC(=O)CNC(=O)[C@H](Cc1ccc(O)cc1)NC(=O)[C@H](CO)NC(=O)[C@H](Cc1c[nH]c2ccccc12)NC(=O)[C@H](Cc1cnc[nH]1)NC(=O)[C@@H]1CCC(=O)N1)C(=O)N[C@@H](CCCNC(=N)N)C(=O)N1CCC[C@H]1C(=O)NCC(N)=O [Peptide 1],inhibition of HBV replication as compared to the virus control infection,[1],30.4%
same,reduction of the ceramide-induced apoptosis on human lung cells,[2],27.05%
same,change of the production of TNF-alpha,[3],did not significantly change
same,production of IFN-γ (decreased by %),[3],did not significantly change
same,production of IL-2 (induced by %),[3],43.6%
same,production of IL-4 (decreased by %),[3],65.9%
same,production of IL-5 (decreased by %),[3],44.1%
same,inhibition of the migration of human endothelial cells,[4]; combination 1.10 mole:0.90 mole,39%
same,inhibition of the tube formation of human endothelial cells,[5],6%
same,inhibition of HCMV plaque formation as compared to the virus control,[6],did not inhibit
Met-Gln-Met-Lys-Lys-Val-Leu-Asp-Ser-OH (MQMKKVLDS-OH) [Peptide 2],inhibition of HBV replication as compared to the virus control infection,[1],no effect
same,reduction of the ceramide-induced apoptosis on human lung cells,[2],did not reduce
same,change of the production of TNF-alpha,[3],did not significantly change
same,production of IFN-γ (decreased by %),[3],27.5%
same,production of IL-2 (induced by %),[3],did not significantly change
same,production of IL-4 (decreased by %),[3],did not significantly change
same,production of IL-5 (decreased by %),[3],38.8%
same,increase of the migration of endothelial cells,[4],16%
same,inhibition of the tube formation of human endothelial cells,[5],4%
same,inhibition of HCMV plaque formation as compared to the virus control,[6],did not inhibit
